Laboratory results: patent publication US8119691B2, “Method for treating airway hyper-responsiveness with lipoxin analogs” (National Institutes of Health (NIH), priority 2001, dated 2012)

How the values were obtained:
OVA sensitized FVB mice = experiment: Allergic airway inflammation, BAL leukocyte differentials, comparison with Montelukast (FIG. 7); format: in vivo, mouse (FVB); set-up: dose or concentration left out as unconfirmed; details: days 14-17, at least 1 h prior to OVA aerosol; BAL day 18
Description: FIG. 7. Depicts regulation of allergic airway inflammation by 15-epi,16-para-fluoro-phenoxy-LXA4-methyl ester in comparison to a commercially available drug (Montelukast) used to treat chronic asthma.
Five to seven week old male FVB (Charles River Laboratories, Wilmington, Mass.) mice were housed in isolation cages under viral antibody-free conditions. After Harvard Medical Area IRB approval (Protocol #02570), mice were sensitized with intraperitoneal injections of ovalbumin (OVA) (Grade III; Sigma Chemical Co., St. Louis, Mo.) (10 mg) plus 1 mg aluminum hydroxide (ALUM) (J. T. Baker Chemical Co.; Phillipsburg, N.J.) as adjuvant in 0.2 ml PBS on days 0 and 7. On days 14, 15, 16 and 17, the mice received an analog of LXA4 (15-epi,16-para-fluoro-phenoxy-LXA4-methyl ester) ([…], 21.7 nmoles), montelukast ([…], 21.7 nmoles) or PBS with 1.6 mM CaCl2 and 1.6 mM MgCl2 (0.1 ml) by intravenous injection at least 1 h prior to an aerosol challenge containing either PBS or 6% OVA for 25 min/day. On day 18, 24 h after the last aerosol challenge, bilateral bronchoalveolar lavage (BAL) (2 aliquots of 1 ml PBS plus 0.6 mM EDTA) was performed. BAL fluids were centrifuged (2000 g, 10 min) and cells were resuspended in HBSS, enumerated by hemocytometer, and concentrated onto microscope slides by cytocentrifuge (STATspin) (265 g). […]

OVA sensitized mice = experiment: Airway responsiveness to intravenous methacholine (lung resistance, ED200) in OVA sensitized and aerosol challenged mice; format: in vivo, mouse (BALB/c)
Experimental: FIG. 1. Inhibition of airway hyper-responsiveness with LXa. OVA sensitized mice were treated with LXa ([…]) (o) or vehicle (•) prior to OVA aerosol challenge. Airway reactivity was determined by methacholine-dependent change in lung resistance (a) and calculation of ED200 (b). Results are expressed as mean±SEM (n≧17 in (a) and n≧6 (b)). *P<0.05 by Student's t-test compared to control animals.
After systemic sensitization to ovalbumin (OVA, 10 μg i.p.), male Balb/c mice (5-7 weeks) were exposed to aerosolized OVA (6%, 25 min) on four successive days. 24 hours after the last aerosol, bronchial responsiveness to intravenous methacholine was determined (as in refs. 14, 15), bronchoalveolar lavage was performed and tissues were harvested for microscopy. […] After allergen sensitization and aerosol challenge, high levels of both CysLT (139.0+/−27.3 pg CysLT/ml, mean+/−SEM, n=9) and PGE2 (1117.7+/−103.8 pg PGE2/ml, mean+/−SEM, n=5) in bronchoalveolar lavage (BAL) (Table 1) were identified. In these same BAL fluids, LXA4 was also present (15.0+/−3.3 pg LXA4/ml, mean+/−SEM, n=5) at levels similar to LTB4 (6.4+/−2.3 pg LTB4/ml, mean+/−SEM, n=9), but in 10- to 100-fold lower concentrations than CysLT's and PGE2, respectively (Table 1). LXA4 was not detected in cell-free BAL supernatants from non-immunized mice.
Sensitization and challenge protocols. Five to seven week old male BALB/c (Charles River Laboratories, Wilmington, Mass.) or female hCD11b-hALX FvB transgenic mice were housed in isolation cages under viral antibody-free conditions. After Harvard Medical Area IRB approval (Protocol #02570), mice were sensitized with intraperitoneal injections of ovalbumin (OVA) (Grade III; Sigma Chemical Co., St. Louis, Mo.) (10 μg) plus 1 mg aluminum hydroxide (ALUM) (J.T. Baker Chemical Co.; Phillipsburg, N.J.) as adjuvant in 0.2 ml PBS on days 0 and 7. […] On day 18, 24 h after the last aerosol challenge, airway responsiveness to intravenous methacholine (33-1000 μg/kg) was measured, bilateral bronchoalveolar lavage (BAL) (2 aliquots of 1 ml PBS plus 0.6 mM EDTA) was performed and tissues (whole blood, lungs, mediastinal lymph nodes and spleen) were harvested for histological analysis. Lung resistance (RL) was measured using a sealed constant mass plethysmograph. […] For mice studied using a whole body plethysmograph to assess airway responsiveness (Buxco), each mouse was placed into a chamber and box pressure/time waveform was analyzed to yield the indicator of airflow obstruction, enhanced pause (Penh). […] Readings were initiated at 3 min and continued for 12 min. Peak and one min average Penh values were determined. Serum total IgE levels were determined by ELISA (Crystal Chem, Chicago, Ill.). […]

## COC(=O)CCC[C@H](O)[C@H](O)/C=C/C=C/C=C\C=C\[C@H](O)COc1ccc(F)cc1 [LXa, 15-epi,16-para-fluoro-phenoxy-LXA4-methyl ester]
OVA sensitized FVB mice
  lymphocyte reduction compared with Montelukast: statistically more effective than Montelukast in terms of lymphocyte reduction
OVA sensitized mice; LXa 10 μg i.v., OVA sensitized and challenged mice
  ED200 to methacholine: approximated the responses of control mice that had been sensitized but not challenged with OVA
OVA sensitized mice; LXa alone, compared to control mice
  ED200 to methacholine, LXa administration alone: no significant differences in ED200 compared to control mice
OVA sensitized mice; LXa i.v. at least 60 min prior to OVA challenge, OVA sensitized mice
  bronchoconstriction in response to methacholine (change in lung resistance): significantly inhibited bronchoconstriction in response to methacholine in a dose-dependent manner
OVA sensitized mice; LXa treated mice
  deleterious physiologic or behavioral effects: Neither deleterious physiologic nor behavioral effects were evident
